Our source for the IC50 values is patent US10100058B2, “Fused heterocyclic compounds as CaM kinase inhibitors” (Gilead Sciences, Inc., priority 2016, dated 2018).

For orientation: IC50 means the point on the concentration scale where inhibition reaches its midpoint.

The target of this test is recombinant CaMKIIδ (Homo sapiens (Human), UniProt Q13557). The experiment in a line: CaMKIIδ biochemical assay (HTRF). Particulars: 10 pM CaMKIIδ, 110 nM calmodulin, 12 μM ATP, 1 hour; read-out: CAMKIID-HTRF-384V2 (IC50 - nM). The protocol: CaMKIIδ Biochemical Assay
The biochemical activity of recombinant CaMKIIδ was measured by monitoring the phosphorylation of a target peptide using Homogenous Time Resolved Fluorescence (HTRF) technology from CisBio Bioassays.
Background: In TR-FRET formats the signal depends on donor and acceptor labels being close together.
For `COC1CN(c2cc(C(=O)NC[C@H](C)N)cc(-c3cnn4ccc(-c5ccccc5)nc34)n2)C1` [Example 172, (S)—N-(2-aminopropyl)-2-(3-methoxyazetidin-1-yl)-6-(5-phenylpyrazolo[1,5-a]pyrimidin-3-yl)isonicotinamide], the IC50 was determined as 85.3 nM.

Regarding `CCN[C@@H](C)CNC(=O)c1cc(-c2cnn3ccc(-c4cccs4)nc23)nc(N2CC(OC)C2)c1` [Example 173, (S)—N-(2-(ethylamino)propyl)-2-(3-methoxyazetidin-1-yl)-6-(5-(thiophen-2-yl)pyrazolo[1,5-a]pyrimidin-3-yl)isonicotinamide], the IC50 is 13 nM.

Consider `CCN[C@@H](C)CNC(=O)c1cc(-c2cnn3ccc(-c4ccccc4)nc23)nc(N2CC(OC)C2)c1` [Example 174, (S)—N-(2-(ethylamino)propyl)-2-(3-methoxyazetidin-1-yl)-6-(5-phenylpyrazolo[1,5-a]pyrimidin-3-yl)isonicotinamide], for which the IC50 was 35.2 nM.

Take `CCN(CC)[C@@H](C)CNC(=O)c1cc(-c2cnn3ccc(-c4ccns4)nc23)nc(N2CC(OC)C2)c1` [Example 176, (S)—N-(2-(diethylamino)propyl)-2-(5-(isothiazol-5-yl)pyrazolo[1,5-a]pyrimidin-3-yl)-6-(3-methoxyazetidin-1-yl)isonicotinamide]: the half-maximal inhibitory concentration (IC50) is 0.29 nM.

In the case of `CCN(CC)[C@@H](C)CNC(=O)c1cc(-c2cnn3ccc(-c4cccs4)nc23)nc(N(C)S(C)(=O)=O)c1` [Example 177, (S)—N-(2-(diethylamino)propyl)-2-((N-methylmethyl)sulfonamido)-6-(5-(thiophen-2-yl)pyrazolo[1,5-a]pyrimidin-3-yl)isonicotinamide], the IC50 worked out at 0.8 nM.

Consider `CCN(CC)[C@@H](C)CNC(=O)c1cc(NS(=O)(=O)C(C)C)nc(-c2cnn3ccc(-c4cccs4)nc23)c1` [Example 178, (S)—N-(2-(diethylamino)propyl)-2-((1-methylethyl)sulfonamido)-6-(5-(thiophen-2-yl)pyrazolo[1,5-a]pyrimidin-3-yl)isonicotinamide], for which the IC50 worked out at 1.25 nM.

With `CCN(CC)[C@@H](C)CNC(=O)c1cc(NS(=O)(=O)CC)nc(-c2cnn3ccc(-c4cccs4)nc23)c1` [Example 179, (S)—N-(2-(diethylamino)propyl)-2-(ethylsulfonamido)-6-(5-(thiophen-2-yl)pyrazolo[1,5-a]pyrimidin-3-yl)isonicotinamide], the IC50 was determined as 0.72 nM.

Consider `CCN(CC)[C@@H](C)CNC(=O)c1cc(NS(=O)(=O)C2CC2)nc(-c2cnn3ccc(-c4cccs4)nc23)c1` [Example 180, (S)-2-(cyclopropanesulfonamido)-N-(2-(diethylamino)propyl)-6-(5-(thiophen-2-yl)pyrazolo[1,5-a]pyrimidin-3-yl)isonicotinamide], for which the IC50 came to 0.47 nM.

Consider `CCN(CC)[C@@H](C)CNC(=O)c1cc(NS(C)(=O)=O)nc(-c2cnn3ccc(-c4cccs4)nc23)c1` [Example 181, (S)—N-(2-(diethylamino)propyl)-2-(methylsulfonamido)-6-(5-(thiophen-2-yl)pyrazolo[1,5-a]pyrimidin-3-yl)isonicotinamide], for which the IC50 came out at 0.64 nM.

In the case of `CCN(CC)[C@@H](C)CNC(=O)c1cc(-c2cnn3ccc(-c4cccs4)nc23)nc(N2CC(NS(=O)(=O)CC)C2)c1` [Example 182, (S)—N-(2-(diethylamino)propyl)-2-(3-(ethylsulfonamido)azetidin-1-yl)-6-(5-(thiophen-2-yl)pyrazolo[1,5-a]pyrimidin-3-yl)isonicotinamide], the IC50 came out at 0.16 nM.

For the compound `CCN(CC)[C@@H](C)CNC(=O)c1cc(-c2cnn3ccc(-c4cccs4)nc23)nc(N2CC(NS(=O)(=O)C(C)C)C2)c1` [Example 183, (S)—N-(2-(diethylamino)propyl)-2-(3-((1-methylethyl)sulfonamido)azetidin-1-yl)-6-(5-(thiophen-2-yl)pyrazolo[1,5-a]pyrimidin-3-yl)isonicotinamide], the IC50 is 0.26 nM.

`CCN(CC)[C@@H](C)CNC(=O)c1cc(-c2cnn3ccc(-c4cccs4)nc23)nc(N2CCNC2=O)c1` [Example 184, (S)—N-(2-(diethylamino)propyl)-2-(2-oxoimidazolidin-1-yl)-6-(5-(thiophen-2-yl)pyrazolo[1,5-a]pyrimidin-3-yl)isonicotinamide]: the IC50 was 1.16 nM.

For `CCNC(=O)Nc1cc(C(=O)NC[C@H](C)N(CC)CC)cc(-c2cnn3ccc(-c4cccs4)nc23)n1` [Example 185, (S)—N-(2-(diethylamino)propyl)-2-(3-ethylureido)-6-(5-(thiophen-2-yl)pyrazolo[1,5-a]pyrimidin-3-yl)isonicotinamide], the IC50 turned out to be 0.11 nM.

On to `CCOC(=O)Nc1cc(C(=O)NC[C@H](C)N(CC)CC)cc(-c2cnn3ccc(-c4cccs4)nc23)n1` [Example 186, (S)-ethyl (4-((2-(diethylamino)propyl)carbamoyl)-6-(5-(thiophen-2-yl)pyrazolo[1,5-a]pyrimidin-3-yl)pyridin-2-yl)carbamate], for which the IC50 turned out to be 0.23 nM.

For `CCN(CC)[C@@H](C)CNC(=O)c1cc(NC(=O)OC(C)C)nc(-c2cnn3ccc(-c4cccs4)nc23)c1` [Example 187, (S)-isopropyl (4-((2-(diethylamino)propyl)carbamoyl)-6-(5-(thiophen-2-yl)pyrazolo[1,5-a]pyrimidin-3-yl)pyridin-2-yl)carbamate], the concentration for half-maximal inhibition (IC50) was 0.27 nM.

Consider `CCC(=O)Nc1cc(C(=O)NC[C@H](C)N(CC)CC)cc(-c2cnn3ccc(-c4cccs4)nc23)n1` [Example 188, (S)—N-(2-(diethylamino)propyl)-2-propionamido-6-(5-(thiophen-2-yl)pyrazolo[1,5-a]pyrimidin-3-yl)isonicotinamide], for which the IC50 was 0.43 nM.

As to `CCN(CC)[C@@H](C)CNC(=O)c1cc(NC(=O)C(C)C)nc(-c2cnn3ccc(-c4cccs4)nc23)c1` [Example 189, (S)—N-(2-(diethylamino)propyl)-2-isobutyramido-6-(5-(thiophen-2-yl)pyrazolo[1,5-a]pyrimidin-3-yl)isonicotinamide], the IC50 is 0.45 nM.

On to `CCN(CC)[C@@H](C)CNC(=O)c1cc(NC(=O)C2CC2)nc(-c2cnn3ccc(-c4cccs4)nc23)c1` [Example 190, (S)-2-(cyclopropanecarboxamido)-N-(2-(diethylamino)propyl)-6-(5-(thiophen-2-yl)pyrazolo[1,5-a]pyrimidin-3-yl)isonicotinamide], for which the IC50 was determined as 0.16 nM.

Consider `CCN(CC)[C@@H](C)CNC(=O)c1cc(NCC2(C)COC2)nc(-c2cnn3ccc(-c4cccs4)nc23)c1` [Example 191, (S)—N-(2-(diethylamino)propyl)-2-(((3-methyloxetan-3-yl)methyl)amino)-6-(5-(thiophen-2-yl)pyrazolo[1,5-a]pyrimidin-3-yl)isonicotinamide], for which the IC50 worked out at 0.2 nM.

Consider `CCN(CC)[C@@H](C)CNC(=O)c1cc(NCC2COC2)nc(-c2cnn3ccc(-c4cccs4)nc23)c1` [Example 192, (S)—N-(2-(diethylamino)propyl)-2-((oxetan-3-ylmethyl)amino)-6-(5-(thiophen-2-yl)pyrazolo[1,5-a]pyrimidin-3-yl)isonicotinamide], for which the IC50 is 141 nM.

As for `CCN(CC)[C@@H](C)CNC(=O)c1cc(NC2COC2)nc(-c2cnn3ccc(-c4cccs4)nc23)c1` [Example 193, (S)—N-(2-(diethylamino)propyl)-2-(oxetan-3-ylamino)-6-(5-(thiophen-2-yl)pyrazolo[1,5-a]pyrimidin-3-yl)isonicotinamide], the IC50 came out at 83.2 nM.
